Data on 72 molecules can be found in PubChem BioAssay AID179 (DTP/NCI, 2004).

Active and inactive are the calls of the source.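 Rule for the calls: active = compounds giving half or more protection of infected cells from virus-caused growth loss, again on retest; inactive = the rest.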 Where a SMILES comes first, the peptide text is derived from it. [ ]: non-standard residue; d: D form. The star is where a group is joined. Tyr(3-Br) = N[C@@H](Cc1ccc(O)c(Br)c1)C(=O)O; Boc = CC(C)(C)OC(=O)*

The subject of the experiment is CEM cells HIV-1 protection, formazan growth assay. Kind of experiment: NCI AIDS Antiviral Assay. Particulars: for IC50: measured here: growth of uninfected CEM cells. A digest of the protocol:
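Screen of anti-HIV-1 activity in human CEM cells using a formazan-based growth measurement at five drug concentrations. Hits with 50% or greater protection were repeated, and confirmation required reproducible complete protection.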

The term EC50 denotes the concentration giving half of the maximal effect. In general, IC50 refers to the point on the concentration scale where inhibition reaches its midpoint. Low readings indicate greater potency in that assay, high ones weaker potency in that assay. Consider `O=[N+]([O-])c1ccc(C=C2C=CN(CCO)C=C2)cc1`, for which the EC50 is more than 200 µM and the IC50 is more than 200 µM. With `CC1Cn2c(Cc3ccccc3)nnc2S1` (stereo not drawn), the outcome was inactive.

For `COC(=O)c1ccc(C)cc1C1CN=NC12Cc1c(C)cccc1C2=O` (stereo not drawn), the EC50 is more than 200 µM and the IC50 was more than 200 µM. Take `CN1NC(=O)SC(=O)c2ccccc2C1=O`: the outcome was inactive. Take `C=C1C2CCC3(CCC4C5(C)CCCC4(CN(CC)C5)C3C2)C1O` (stereo not drawn): the result was inactive. `CCCCCCCSc1ccc(/C=C(\C#N)c2ccc(OCCN(CC)CC)cc2)cc1`: the EC50 was more than 100 µM and the IC50 was found to be 1.86 µM.

`COC1/C=C/OC2(C)Oc3c(C)c(O)c4c(c3C2=O)C(=O)C(CO)=C(NC(=O)/C(C)=C\C=C\C(C)C(O)C(C)C(O)C(C)C(OC(C)=O)C1C)C4=O` (stereo not drawn): the EC50 was more than 200 µM and the half-maximal inhibitory concentration (IC50) worked out at 91.2 µM. With `O=C(Nc1ccccc1C(=O)O)C(=O)C(C(=O)c1ccccc1-c1ccccc1)C1OC(=O)c2ccccc21` (stereo not drawn), the EC50 is more than 50.1 µM and the concentration for half-maximal inhibition (IC50) worked out at 25.1 µM. As to `C#CCOC(=O)c1ccccc1OC(C)=O`, the EC50 was more than 200 µM and the half-inhibitory concentration (IC50) was more than 200 µM. For the molecule `COc1cc(OC)c2ssc3c(OC)cc(OC)c4ssc1c2-c43`, the EC50 is more than 13.2 µM and the concentration for half-maximal inhibition (IC50) was more than 13.2 µM.

Consider `COc1ccc(/C=N/n2cnc3c(c2=O)SC(=C(C#N)C#N)N3c2ccccc2)cc1`, for which the EC50 is more than 6.17 µM and the IC50 is more than 6.17 µM.

Take `NC(=O)C1=NOC(C(N)=O)C1C1OC(CO)C(O)C1O` (stereo not drawn): the EC50 was more than 200 µM and the concentration for half-maximal inhibition (IC50) was more than 200 µM.

For the molecule `O=C1OCN(c2ccccc2)C12CCN(Cc1ccccc1)CC2`, the EC50 is more than 200 µM and the IC50 is 28.8 µM.

`Cn1c(COc2ccc(/C=N\N3CCN(/N=C\c4ccc(OCc5c[n+]6ccccc6n5C)cc4)CC3)cc2)c[n+]2ccccc12`: the EC50 is 6.31 µM and the IC50 stood at 7.59 µM. Consider `Cn1cnc(N2CCCC2)c(C#N)c1=S`, for which the EC50 was more than 200 µM and the 50% inhibitory concentration (IC50) was more than 200 µM. In the case of `CC1COS(=O)(=O)CS(=O)(=O)O1` (stereo not drawn), the EC50 was more than 1150 µM and the IC50 is more than 1150 µM. Consider `Cc1nnc(Nc2ccc(Cl)cc2)o1`, for which the EC50 is more than 200 µM and the IC50 is more than 200 µM. Regarding `CC(=O)N1C(C(=O)NNc2ccccc2)CSC1c1ccccc1` (stereo not drawn), the EC50 was more than 200 µM and the half-inhibitory concentration (IC50) was determined as 12.3 µM. The like results for `COc1cc(C2c3cc4c(cc3OC(NNc3ccccc3)C2C)OCO4)cc(OC)c1OC` (stereo not drawn) were, in that order, more than 200 µM and 3.89 µM. Regarding `CC1(C)O[C@H]2Cn3c(c(C#N)c4ccccc43)[C@H]2O1`, the EC50 is more than 200 µM and the 50% inhibitory concentration (IC50) came to 178 µM. Consider `COc1cccc(N2C(=O)[C@H]3[C@H]4CC(C(C)(C)C)CC[C@H]4c4c([nH]c5ccccc45)[C@H]3C2=O)c1` (stereo partly drawn), for which the EC50 was 18.2 µM and the IC50 worked out at 26.9 µM. With `O=C1C(=O)N(c2ccc(Cl)cc2Cl)C(=O)C(=O)C1c1nc2ccccc2s1`, the EC50 was more than 85.1 µM and the IC50 was more than 85.1 µM.

In the case of `Cc1[nH]c(=O)[nH]c(=O)c1N(CCF)CCCl`, the EC50 was more than 1000 µM and the IC50 is 89.1 µM. With `C1=CC2=CC=CC3c4nc5ccc6ccccc6c5nc4C(=C1)C23` (stereo not drawn), the EC50 was more than 200 µM and the IC50 is more than 200 µM.

For `Cc1ccc(-c2cc(-c3ccccc3)[s+]c3ccc(C)cc23)cc1`, the EC50 is more than 200 µM and the half-inhibitory concentration (IC50) is 6.03 µM. `CCOCCOCCOCc1nc(C#N)c(N)o1`: the EC50 is more than 200 µM and the IC50 is more than 200 µM. On to `COc1cc2oc3c(C)c(=O)cc4oc(-c5ccccc5)cc(c2c2c1CCC(c1ccccc1)O2)c43` (stereo not drawn), for which the EC50 is more than 4.07 µM and the IC50 was more than 4.07 µM. On to `COC(=O)C(Cc1ccccc1I)C1=CCC2(CC1)OCCO2` (stereo not drawn), for which the EC50 is more than 200 µM and the IC50 was determined as 49 µM.

In the case of `O=[N+]([O-])c1ccc(C=Cc2ccccc2)cc1.[C-]#[O+].[C-]#[O+].[C-]#[O+].[Cr]`, the result was inactive. Turning to `Cc1cc(N(CCC#N)CCC#N)ccc1/C=C(\NC(=O)/C=C/c1ccccc1)NC(=O)Nc1ccc(Cl)cc1`, the outcome was inactive.

Take `O=S(O)CCCCCSSc1ccc(Cl)cc1`: the outcome was inactive.

Turning to `CCOC(=O)Cc1cc(=O)[nH]c(-n2[nH]c(C)c(CCO)c2=O)n1`, the EC50 is more than 200 µM and the IC50 is more than 200 µM. On to `Cc1cccc2c3ccc4c(c3n(C)c12)C(=O)C=CC4=O`, for which the EC50 is more than 49 µM and the half-inhibitory concentration (IC50) came to 24.5 µM. Regarding `CCOC(=O)C1(C#N)C(c2ccccc2)CC(O)(c2ccc(OC)cc2)C(C(=O)c2ccc(OC)cc2)C1c1ccccc1` (stereo not drawn), the EC50 was more than 12.3 µM and the IC50 was more than 12.3 µM. For the molecule `O=C1C=CC(=O)c2nc3c(nc21)[nH]c1ccccc13`, the EC50 is more than 26.3 µM and the half-maximal inhibitory concentration (IC50) is 13.2 µM.

With `CC(C)(C)c1ccc(OCCOc2ccc(C(C)(C)C)cc2NC=O)c(NC=O)c1`, the EC50 is more than 200 µM and the IC50 stood at 5.13 µM.

Take `CC12CCC3c4ccc(OS(=O)(=O)O)cc4CCC3C1CC(O)C2O` (stereo not drawn): the outcome was inactive.

As to `CN(C)c1n2c3ccc([N+](=O)[O-])cc3n3c(N(C)C)[n+]4ccccc4c3c2c2cccc[n+]12`, the EC50 is more than 200 µM and the IC50 was 89.1 µM. As for `CNC(C)C#N` (stereo not drawn), the result was inactive. Turning to `CCOC(=O)CCC(NC(=O)c1ccc(OCc2ccc3nc(OC)c(OC)nc3c2)cc1)C(=O)OCC` (stereo not drawn), the EC50 was more than 200 µM and the IC50 came out at 41.7 µM. Take `CC1CC(C)(C)C2=NCCN21` (stereo not drawn): the EC50 was more than 1620 µM and the half-maximal inhibitory concentration (IC50) was more than 1620 µM.

With `O=C1c2scc(-c3ccccc3)c2-n2cccc21`, the EC50 was more than 200 µM and the IC50 amounted to 17.8 µM. Turning to `CC(=O)OC1CCC2(C)C(CCC3C4CC=C(C(C)=O)C4(C)OC(=O)CC32)C1` (stereo not drawn), the outcome was inactive. As for `CCCCCCCCCCC(=O)CCCCCCC(=O)O`, the outcome was inactive. In the case of `Cc1ccccc1N1OS(=O)(=O)CC1(C#N)c1ccccc1` (stereo not drawn), the EC50 is more than 83.2 µM and the IC50 was more than 83.2 µM. Turning to `CCOC(=O)c1ccc(C(=O)/C(C(C)=O)=C2\CCCN2C)n1C`, the EC50 is 89.1 µM and the half-inhibitory concentration (IC50) amounted to 174 µM.

For the molecule `CCOC(=O)/C(C#N)=C/c1cccc(Br)c1`, the outcome was inactive.

Take `C=C1CC(C)(COc2ccc3c(C)c(Cl)c(=O)oc3c2)OC1=O` (stereo not drawn): the EC50 was more than 2 µM and the IC50 amounted to 0.617 µM. On to `CN1C(=O)C2(C=CCC2)c2ccccc21` (stereo not drawn), for which the EC50 is more than 1260 µM and the IC50 is 81.3 µM. On to `O=C1CN2CC(c3ccccc3)OC2c2ccccc2N1` (stereo not drawn), for which the EC50 is more than 224 µM and the IC50 is more than 224 µM. As for `Nc1nc(Cl)c(N)c(NCC2(CO)CCC(OCc3ccccc3)C2)n1` (stereo not drawn), the EC50 is more than 200 µM and the IC50 is 26.9 µM.

Regarding `CC/C(SC)=[N+](\C)[O-]`, the EC50 is more than 955 µM and the half-inhibitory concentration (IC50) turned out to be 174 µM.

As for `CC1(C)OC(=O)C(C#N)=C1/C=C1\OC(=O)c2ccccc21`, the EC50 was more than 178 µM and the 50% inhibitory concentration (IC50) was 52.5 µM. `C=CC(OCC)(OCC)OCC`: the EC50 is more than 1450 µM and the IC50 was more than 1450 µM. Regarding `CC(C)CCC[C@@H](C)[C@H]1CC[C@H]2[C@@H]3CCC4C[C@@H](OP(=O)(O)OCCC=C(c5cc(Cl)c(O)c(C(=O)O)c5)c5cc(Cl)c(O)c(C(=O)O)c5)CC[C@]4(C)[C@H]3CC[C@]12C` (stereo partly drawn), the EC50 is more than 200 µM and the 50% inhibitory concentration (IC50) turned out to be 33.9 µM. `N#Cc1c(Sc2ccccc2N)cccc1Sc1ccccc1N`: the EC50 was more than 200 µM and the 50% inhibitory concentration (IC50) is more than 200 µM. Consider `COc1ccc(N2C=Nn3c(nc4sc5c(c4c3=O)CCCC5)C2)cc1`, for which the EC50 is more than 50.1 µM and the IC50 is more than 50.1 µM. In the case of `CC(=O)O[C@@H]1CC[C@]2(C)C3CC[C@]4(C)C(C(C)CCc5nc6ccccc6[nH]5)CCC4C3[C@H](OC(C)=O)C[C@@H]2C1` (stereo partly drawn), the EC50 is more than 50.1 µM and the IC50 is 12.9 µM. The like results for `O=C1C2CCCCC2C(=O)N1n1c(Cc2ccccc2)n[nH]c1=O` (stereo not drawn) were, in that order, more than 200 µM and more than 200 µM. For `CC(C)CCCC(C)C1CCC2C3CCC4CC5(CCC4(C)C3CCC12C)NCCCS5` (stereo not drawn), the EC50 was more than 1.58 µM and the IC50 is more than 1.58 µM.

`c1ccc(CSP234N5CCN2CCN3CCN4CC5)c(CSP234N5CCN2CCN3CCN4CC5)c1`: the EC50 is more than 100 µM and the IC50 is 39.8 µM. For the molecule `CCCc1nc2c(nc1C)C(=O)C=CC2=O`, the EC50 was more than 832 µM and the half-inhibitory concentration (IC50) worked out at 17 µM. Turning to `N#C/C(=C(\c1ccccc1)c1ccccn1)c1ccccc1`, the EC50 was more than 20 µM and the IC50 was 1.1 µM. Regarding `COc1cc(N=CNc2cc(OC)n[n+]([O-])c2)c[n+]([O-])n1`, the EC50 is more than 224 µM and the half-inhibitory concentration (IC50) is more than 224 µM. In the case of `COC(=O)C(Cc1nc2ccccc2[nH]c1=O)C(=O)C(=O)Nc1ccc(OC)cc1[N+](=O)[O-]` (stereo not drawn), the EC50 was more than 398 µM and the IC50 was more than 398 µM. For `CC12COC3(C)CCC(C)(OC1)N23` (stereo not drawn), the EC50 is more than 490 µM and the IC50 is more than 490 µM. In the case of `O=c1cc(C(F)(F)F)c2cc3c4c(c2o1)CCCN4CCC3`, the EC50 was more than 4.68 µM and the concentration for half-maximal inhibition (IC50) was more than 4.68 µM.

Turning to `COc1cc2c(cc1OC)NCC1COc3c(ccc(OC)c3OC)C1=N2` (stereo not drawn), the EC50 was more than 200 µM and the IC50 stood at 117 µM. As for `O=C1CC2(CCN(CC3COc4ccccc4O3)CC2)C(=O)N1N1CCCCCC1` (stereo not drawn), the EC50 is more than 200 µM and the half-inhibitory concentration (IC50) was determined as 72.4 µM. Consider `COC(=O)[C@H](Cc1ccc(O)c(Br)c1)NC(=O)[C@H](Cc1ccc(O)cc1)NC(=O)OC(C)(C)C` (Boc-Tyr-[Tyr(3-Br)]-OMe), for which the EC50 was more than 200 µM and the IC50 is 34.7 µM. As for `CCOC(=O)C1Sc2ccccc2N=C1C` (stereo not drawn), the EC50 was more than 30.9 µM and the IC50 was more than 30.9 µM.

With `O=C(OC1Cc2c(O)cc(O)cc2OC1c1ccc(O)c(O)c1)c1cc(O)c(O)c(O)c1` (stereo not drawn), the EC50 is more than 56.2 µM and the IC50 is 49 µM.
